Experimental data published in patent US7732449B2, “Inhibitors of cathepsin S” (IRM LLC, priority 2003, dated 2010).
Read-outs that look alike come from different tables or passages of the source.

Legend:
Assay type in all cases: biochemical
Cathepsin S = Cathepsin S (Homo sapiens, UniProt P25774); test: Cathepsin S inhibition, fluorogenic peptide substrate kinetic assay;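 also: cleavage rate of a coumarin-labelled peptide substrate (50 µM) read as fluorescence increase at Ex 380 nm and Em 450 nm, relative to inhibitor-free control reactions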
Cathepsin K = biological target: T1, Cathepsin K (Homo sapiens, UniProt P43235); test: Cathepsin K inhibition, fluorogenic peptide substrate kinetic assay (selectivity); conditions: ratio of cathepsin K inhibition constant to cathepsin S inhibition constant
T1 sequence (P43235 115-329): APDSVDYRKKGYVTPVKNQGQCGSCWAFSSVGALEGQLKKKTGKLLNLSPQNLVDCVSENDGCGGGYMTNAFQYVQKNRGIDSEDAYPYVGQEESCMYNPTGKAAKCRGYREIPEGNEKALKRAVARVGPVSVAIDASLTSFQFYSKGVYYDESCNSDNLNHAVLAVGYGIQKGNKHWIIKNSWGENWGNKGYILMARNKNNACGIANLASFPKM

Cathepsin L = Cathepsin L (Homo sapiens, UniProt P07711); test: Cathepsin L inhibition, fluorogenic peptide substrate kinetic assay (selectivity); conditions: ratio of cathepsin L inhibition constant to cathepsin S inhibition constant
Cathepsin B = Cathepsin B (Homo sapiens, UniProt P07858); test: Cathepsin B inhibition, fluorogenic peptide substrate kinetic assay (selectivity); conditions: ratio of cathepsin B inhibition constant to cathepsin S inhibition constant;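 also: value is the cathepsin B inhibition constant divided by the cathepsin S one, each from kinetic fluorescence readings (ex 380 nm, em 450 nm) of a 10 µM coumarin peptide substrate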
[1] = Cathepsin S inhibition constant, pH5.5, 20 minutes preincubation at room temperature, read-out: Ki Cat. S

Chain of Cathepsin L (P07711 114-333, species assumed): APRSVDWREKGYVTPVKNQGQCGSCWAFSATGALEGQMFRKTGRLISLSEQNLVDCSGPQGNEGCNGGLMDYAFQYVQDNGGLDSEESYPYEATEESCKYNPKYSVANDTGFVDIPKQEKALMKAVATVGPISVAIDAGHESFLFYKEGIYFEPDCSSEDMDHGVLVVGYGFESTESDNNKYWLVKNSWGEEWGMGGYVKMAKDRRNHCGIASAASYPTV
Chain of Cathepsin S (P25774 115-331, species assumed): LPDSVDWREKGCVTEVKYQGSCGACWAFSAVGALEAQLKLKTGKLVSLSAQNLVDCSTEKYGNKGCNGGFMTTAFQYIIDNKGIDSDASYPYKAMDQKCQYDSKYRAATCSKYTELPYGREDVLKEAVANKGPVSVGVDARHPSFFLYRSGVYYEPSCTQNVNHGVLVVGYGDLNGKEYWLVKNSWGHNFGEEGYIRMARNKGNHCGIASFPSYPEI

C[C@@H](CNc1ccc(OC(F)(F)F)cc1)NC(=O)[C@H](CCC(C)(C)C)CC(=O)N1CCOCC1 [Example 25, 5,5-Dimethyl-2-(R)-(2-morpholin-4-yl-2-oxo-ethyl)-hexanoic acid [1-(S)-methyl-2-(4-trifluoromethoxy-phenylamino)-ethyl]-amide]
Ki (Cathepsin S): 100 to 1000 nM | Selectivity for Cat. S over Cat. K (Cathepsin K): ++ (++, >100) | Selectivity for Cat. S over Cat. L (Cathepsin L): ++ (++, >100) | Selectivity for Cat. S over Cat. B (Cathepsin B): ++ (++, >100)

CCC[C@@H](CNc1ccc(OC(F)(F)F)cc1)NC(=O)[C@@H](CC(=O)N1CCOCC1)CC1CCCC1 [Example 27, 2-(R)-Cyclopentylmethyl-4-morpholin-4-yl-4-oxo-N-{1-(S)-[(4-trifluoromethoxy-phenylamino)-methyl]-butyl}-butyramide]
Ki (Cathepsin S): < 100 nM | Selectivity for Cat. S over Cat. K (Cathepsin K): + (+, >10) | Selectivity for Cat. S over Cat. L (Cathepsin L): ++ (++, >100) | Selectivity for Cat. S over Cat. B (Cathepsin B): +++ (+++, >1000)

CC(C)[C@@H](CNc1ccc(OC(F)(F)F)cc1)NC(=O)[C@@H](CC(=O)N1CCOCC1)c1ccccc1 [Example 34, N-{2-Methyl-1-(S)-[(4-trifluoromethoxy-phenylamino)-methyl]-propyl}-4-morpholin-4-yl-4-oxo-2-(S)-phenyl-butyramide]
Ki (Cathepsin S): < 100 nM | Selectivity for Cat. S over Cat. K (Cathepsin K): + (+, >10) | Selectivity for Cat. S over Cat. L (Cathepsin L): + (+, >10) | Selectivity for Cat. S over Cat. B (Cathepsin B): +++ (+++, >1000)

CC(C)[C@@H](CNc1ccc(OC(F)(F)F)cc1)NC(=O)[C@@H](CC(=O)N1CCOCC1)C1CCCCC1 [Example 35, 2-(S)-Cyclohexyl-N-{2-methyl-1-(S)-[(4-trifluoromethoxy-phenylamino)-methyl]-propyl}-4-morpholin-4-yl-4-oxo-butyramide]
Ki (Cathepsin S; [1]): < 100 nM | Selectivity for Cat. S over Cat. K (Cathepsin K): + (+, >10) | Selectivity for Cat. S over Cat. L (Cathepsin L): ++ (++, >100) | Selectivity for Cat. S over Cat. B (Cathepsin B): +++ (+++, >1000)

CC[C@@H](CNc1ccc(OC(F)(F)F)cc1)NC(=O)[C@H](CCC1CCCC1)CC(=O)N1CCOCC1 [Example 36, 2-(R)-(2-Cyclopentyl-ethyl)-4-morpholin-4-yl-4-oxo-N-{1-(S)-[(4-trifluoromethoxy-phenylamino)-methyl]-propyl}-butyramide]
Ki (Cathepsin S; [1]): < 100 nM | Selectivity for Cat. S over Cat. K (Cathepsin K): ++ (++, >100) | Selectivity for Cat. S over Cat. L (Cathepsin L): + (+, >10) | Selectivity for Cat. S over Cat. B (Cathepsin B): +++ (+++, >1000)

O=C(N[C@@H](CCc1ccccc1)CNc1ccc(OC(F)(F)F)cc1)[C@H](CCC1CCCC1)CC(=O)N1CCOCC1 [Example 37, 2-(R)-(2-Cyclopentyl-ethyl)-4-morpholin-4-yl-4-oxo-N-{3-phenyl-1-(S)-[(4-trifluoromethoxy-phenylamino)-methyl]-propyl}-butyramide]
Ki (Cathepsin S): < 100 nM | Selectivity for Cat. S over Cat. K (Cathepsin K): ++ (++, >100) | Selectivity for Cat. S over Cat. L (Cathepsin L): + (+, >10) | Selectivity for Cat. S over Cat. B (Cathepsin B): ++ (++, >100)

CCC[C@@H](CNc1ccc(OC(F)(F)F)cc1)NC(=O)[C@@H](CC(=O)N1CCOCC1)c1ccccc1 [Example 39, 4-Morpholin-4-yl-4-oxo-2-(S)-phenyl-N-{1-(S)-[(4-trifluoromethoxy-phenylamino)-methyl]-butyl}-butyramide]
Ki (Cathepsin S; [1]): < 100 nM | Selectivity for Cat. S over Cat. K (Cathepsin K): + (+, >10) | Selectivity for Cat. S over Cat. L (Cathepsin L): ++ (++, >100) | Selectivity for Cat. S over Cat. B (Cathepsin B): +++ (+++, >1000)

CC(C)[C@@H](CNc1ccc(OC(F)(F)F)cc1)NC(=O)[C@@H](CC(=O)N1CCOCC1)c1ccc(F)cc1 [Example 41, 2-(S)-(4-Fluoro-phenyl)-N-{2-methyl-1-(S)-[(4-trifluoromethoxy-phenylamino)-methyl]-propyl}-4-morpholin-4-yl-4-oxo-butyramide]
Ki (Cathepsin S): < 100 nM | Selectivity for Cat. S over Cat. K (Cathepsin K): + (+, >10) | Selectivity for Cat. S over Cat. L (Cathepsin L): ++ (++, >100) | Selectivity for Cat. S over Cat. B (Cathepsin B): +++ (+++, >1000)

CC(C)[C@@H](CNc1ccc(OC(F)(F)F)cc1)NC(=O)[C@@H](CC(=O)N1CCOCC1)c1ccc(Cl)cc1 [Example 42, 2-(S)-(4-Chloro-phenyl)-N-{2-methyl-1-(S)-[(4-trifluoromethoxy-phenylamino)-methyl]-propyl}-4-morpholin-4-yl-4-oxo-butyramide]
Ki (Cathepsin S): < 100 nM | Selectivity for Cat. S over Cat. K (Cathepsin K): +++ (+++, >1000) | Selectivity for Cat. S over Cat. L (Cathepsin L): ++ (++, >100) | Selectivity for Cat. S over Cat. B (Cathepsin B): +++ (+++, >1000)

CC(C)[C@@H](CNc1ccc(OC(F)(F)F)cc1)NC(=O)[C@H](CC(=O)N1CCOCC1)c1ccc(Cl)cc1 [Example 43, 2-(R)-(4-Chloro-phenyl)-N-{2-methyl-1-(S)-[(4-trifluoromethoxy-phenylamino)-methyl]-propyl}-4-morpholin-4-yl-4-oxo-butyramide]
Ki (Cathepsin S): 100 to 1000 nM | Selectivity for Cat. S over Cat. K (Cathepsin K): ++ (++, >100) | Selectivity for Cat. S over Cat. L (Cathepsin L): ++ (++, >100) | Selectivity for Cat. S over Cat. B (Cathepsin B): ++ (++, >100)

O=C(N[C@H](CNc1ccc(OC(F)(F)F)cc1)c1ccccc1)[C@@H](CC(=O)N1CCOCC1)CC1CCCCC1 [Example 45, 2-(R)-Cyclohexylmethyl-4-morpholin-4-yl-4-oxo-N-[1-(S)-phenyl-2-(4-trifluoromethoxy-phenylamino)-ethyl]-butyramide]
Ki (Cathepsin S): < 100 nM | Selectivity for Cat. S over Cat. K (Cathepsin K): ++ (++, >100) | Selectivity for Cat. S over Cat. L (Cathepsin L): ++ (++, >100) | Selectivity for Cat. S over Cat. B (Cathepsin B): +++ (+++, >1000)

O=C(N[C@H](CNc1ccc(OC(F)(F)F)cc1)c1ccccc1)[C@H](CCC1CCCC1)CC(=O)N1CCOCC1 [Example 46, 2-(R)-(2-Cyclopentyl-ethyl)-4-morpholin-4-yl-4-oxo-N-[1-(S)-phenyl-2-(4-trifluoromethoxy-phenylamino)-ethyl]-butyramide]
Ki (Cathepsin S; [1]): < 100 nM | Selectivity for Cat. S over Cat. K (Cathepsin K): +++ (+++, >1000) | Selectivity for Cat. S over Cat. L (Cathepsin L): ++ (++, >100) | Selectivity for Cat. S over Cat. B (Cathepsin B): +++ (+++, >1000)

O=C(N[C@H](CNc1ccc(OC(F)(F)F)cc1)c1ccccc1)[C@@H](CC(=O)N1CCOCC1)c1ccc(Cl)cc1 [Example 48, 2-(S)-(4-Chloro-phenyl)-4-morpholin-4-yl-4-oxo-N-[1-(S)-phenyl-2-(4-trifluoromethoxy-phenylamino)-ethyl]-butyramide]
Ki (Cathepsin S; [1]): 100 to 1000 nM | Selectivity for Cat. S over Cat. K (Cathepsin K): + (+, >10) | Selectivity for Cat. S over Cat. L (Cathepsin L): ++ (++, >100) | Selectivity for Cat. S over Cat. B (Cathepsin B): ++ (++, >100)

Cc1cc(NCCNC(=O)[C@H](CCC(C)(C)C)CC(=O)N2CCOCC2)no1 [Example 49, (R)-5,5-Dimethyl-2-(2-morpholin-4-yl-2-oxo-ethyl)-hexanoic acid [2-(5-methyl-isoxazol-3-ylamino)-ethyl]-amide]
Ki (Cathepsin S; [1]): 1000 to 10000 nM | Selectivity for Cat. S over Cat. K (Cathepsin K): + (+, >10) | Selectivity for Cat. S over Cat. L (Cathepsin L): + (+, >10) | Selectivity for Cat. S over Cat. B (Cathepsin B): + (+, >10)

C[C@@H](CNc1ccc(OC(F)(F)F)cc1)NC(=O)[C@@H](CC(=O)N1CCSCC1)CC1CCCCC1 [Example 51, 2-(R)-Cyclohexylmethyl-N-[1-(S)-methyl-2-(4-trifluoromethoxy-phenylamino)-ethyl]-4-oxo-4-thiomorpholin-4-yl-butyramide]
Ki (Cathepsin S; [1]): < 100 nM | Selectivity for Cat. S over Cat. K (Cathepsin K): ++ (++, >100) | Selectivity for Cat. S over Cat. L (Cathepsin L): + (+, >10) | Selectivity for Cat. S over Cat. B (Cathepsin B): +++ (+++, >1000)
